The experiment deals with IGROV-1. The experiment is described as follows: Induction of apoptosis in human IGROV1 cells assessed as healthy cells at 0.5 uM using annexin V/7-AAD by FACS analysis (reference value: 86 %). The format is functional. Background: Flow cytometry measures light scatter and fluorescence of single cells or particles in a stream.

On to `CN1CCN(CCCc2ccc(C(c3ccccc3)C34CC5CC(CC(C5)C3)C4)cc2)CC1` (stereo unspecified), for which the Activity turned out to be 89%.
